# Assay results taken from patent US10314847B2, “Scalarane sesterterpenoid, pharmaceutical composition and topoisomerase II and Hsp90 inhibitor for treating cancer, and use and preparation method thereof” (NATIONAL DONG HWA UNIVERSITY, priority 2017, dated 2019).
# Experiments:
# γH2AX = assay: Western blot of γH2AX expression in Molt 4 cells; format: cell-based, human; conditions: Molt 4 cells, 0.0625, 0.125 and 0.25 μg/mL, 24 hours
# Experimental: Protein expression was analyzed with Western blotting. GAPDH was used as the loading control.
# In order to confirm whether the DNA damage-induced by the marine terpenoids of the present invention involved the inhibition of Topo II activity, a cell-free DNA cleavage assay using an enzyme-mediated negatively supercoiled pHOT1 plasmid DNA was applied. […] These marine terpenoids suppressed Topo II activity, resulting in the inhibition of supercoiled DNA relaxation in a dose-dependent manner (FIG. 2(A)). […] To determine whether the apoptotic mechanism of compounds 1 to 3 affects γH2AX (as a biomarker of DNA damage) induction, Western blot analysis was employed to examine the activation of γH2AX.
# K562 = assay: MTT assay, cytotoxic effect on K562; format: cell-based; conditions: Homo sapiens; K562, molar value in text
# Excerpt: (§1) The cell lines were obtained from the American Type Culture Collection (ATCC, Manassas, Va., U.S.A.) or the Japanese Collection of Research Biosources (JCRB) Cell Bank (Japan). […] Antibodies against XIAP, NFκB (p65), GADD, CDK 4, HSF 1, ATF 6 and β-tubulin were obtained from Santa Cruz Biotechnology (Santa Cruz, Calif., U.S.A.). The Hybond ECL transfer membrane and ECL Western blotting detection kits were obtained from Amersham Life Sciences (Amersham, U.K.).
# (§2) Several cancer cell lines including leukemia K562, Molt 4, and HL 60 cells, prostate cancer LNCaP cells, colon cancer DLD-1 cells and breast cancer T-47D cells were used to evaluate the antiproliferative activity (referring to Table 2).
# [1] = system: ER stress-related proteins; assay: Western blot of ER stress-related proteins; format: cell-based, human; conditions: Molt 4 cells, time-dependent
# Experimental: (§3) Oxidative stress is manifested by ROS overexpression and cannot be balanced by the available antioxidant machinery. Compound 1 of the present invention can damage the integrity of mitochondria, which are the major production sites of the superoxide anion, […]. The induction of the intracellular formation of ROS by compound 1 was determined with a carboxyl derivative of fluorescein, carboxy-H2DCFDA dye using flow cytometric analysis. […] In addition, ROS generation could induce ER stress leading to mitochondria-related apoptosis. To further investigate if ER stress is involved in the apoptotic effect induced by compound 1, Western blot analysis was used to determine the expression of ER stress-related proteins. […] Furthermore, the effect of compound 1 on the release of intracellular Ca^2+, was evaluated using fluorescent calcium indicator, Fluo 3. […] In FIG. 4(D), the induction of the typical executor caspases-3 and -7, and γH2AX, was also observed using Western blot analysis. To confirm the induction of DNA damage by compound 1 in Molt 4 cells, a comet assay under neutral electrophoresis condition was utilized. Thus, the effect of compound 1 (0.0625 μg/mL) at different time intervals (0, 3, 6 and 9 hours) on the level of nuclear DNA integrity was determined. […]
# Molt 4 cells [2] = assay: JC-1 staining, mitochondrial membrane potential disruption; format: cell-based, human; conditions: Molt 4 cells, 0.0625, 0.125 and 0.25 μg/mL, 24 hours, dose-dependent
# Experimental: Determination of Reactive Oxygen Species (ROS) Generation, Calcium Accumulation, and Matrix Metalloproteinase (MMP) Disruption:
# MMP disruption, calcium accumulation and ROS generation were detected with the JC-1 cationic dye (5 μg/mL), the fluorescent calcium indicator (Fluo 3, […]) and the carboxy derivative of fluorescein (carboxy-H2DCFDA, […]), respectively. In brief, the treated cells were labeled with a specific fluorescent dye for 30 minutes. After labeling, cells were washed with PBS and resuspended in PBS at a concentration of 1×10^6 cells/mL before analysis via flow cytometry.
# human topoisomerase II = target: T1, human topoisomerase II (Homo sapiens, UniProt P11388); assay: Assay of topoisomerase II catalytic inhibitors and poisons (cell-free pHOT1 DNA relaxation/cleavage); format: biochemical; conditions: cell-free system; read-out: Topo II activity IC50 (converted)
# T1 construct: purchased Topogen
# Experimental: Assay of Topoisomerase II Catalytic Inhibitors and Poisons:
# Reactions were terminated by adding 2 μL of 10% SDS to facilitate trapping the enzyme in a cleavage complex, followed by the addition of 2.5 μL of proteinase K (50 μg/mL) to digest the bound protein (incubated at 37° C. for 15 minutes) and finally by adding 0.1 volume of the sample loading dye. The DNA products were analyzed via electrophoresis through vertical 2% agarose gels at 2 voltage/cm in 0.5×TAE buffer. Gels were stained with ethidium bromide (EtBr) and photographed using an Eagle Eye II system (Stratagene, La Jolla, Calif., U.S.A.). The quantitative analysis of the DNA Topo II activity was performed.
# Molt 4 cells [3] = assay: Annexin V/PI apoptosis assay; format: cell-based, human; conditions: Molt 4 cells, 0.0625, 0.125 and 0.25 μg/mL, 24 hours, dose-dependent
# Experimental: Annexin V/Propidium Iodide (PI) Apoptosis Assay:
# The externalization of phosphatidylserine (PS) and membrane integrity were quantified using an annexin V-fluorescein isothiocyanate (annexin V-FITC) staining kit. In brief, 10^6 cells were grown in 35 mm diameter plates and were labeled with annexin V-FITC (10 μg/mL) and PI (20 μg/mL) prior to harvesting. After labeling, all plates were washed with a binding buffer and harvested. Cells were resuspended in the binding buffer at a concentration of 2×10^5 cells/mL before analysis by flow cytometer FACS-Calibur (Becton-Dickinson, San Jose, Calif., U.S.A.) and CellQuest software. Approximately 10,000 cells were counted for each determination.
# Molt 4 = system: Molt 4
# Excerpt: as §1, §2
# It is known that mitochondria are critical intracellular loci of ROS production and ROS exposure can lead to the […] opening. The antioxidant, microsomal GST1, in the inner mitochondrial membrane can interact with the mitochondrial permeability transition (MPT) regulator proteins, such as ANT and/or CypD, to form a MPT pore contributing to mitochondria-mediated cell death. In addition, mitochondrial homeostasis of tumor cells is regulated by an organelle-specific Hsp90 chaperone network.
# [4] = system: apoptosis-related proteins; assay: Western blot of apoptosis-related proteins; format: cell-based, human; conditions: Molt 4 cells, time-dependent
# Experimental: as §3
# T1 sequence (P11388 whole entry): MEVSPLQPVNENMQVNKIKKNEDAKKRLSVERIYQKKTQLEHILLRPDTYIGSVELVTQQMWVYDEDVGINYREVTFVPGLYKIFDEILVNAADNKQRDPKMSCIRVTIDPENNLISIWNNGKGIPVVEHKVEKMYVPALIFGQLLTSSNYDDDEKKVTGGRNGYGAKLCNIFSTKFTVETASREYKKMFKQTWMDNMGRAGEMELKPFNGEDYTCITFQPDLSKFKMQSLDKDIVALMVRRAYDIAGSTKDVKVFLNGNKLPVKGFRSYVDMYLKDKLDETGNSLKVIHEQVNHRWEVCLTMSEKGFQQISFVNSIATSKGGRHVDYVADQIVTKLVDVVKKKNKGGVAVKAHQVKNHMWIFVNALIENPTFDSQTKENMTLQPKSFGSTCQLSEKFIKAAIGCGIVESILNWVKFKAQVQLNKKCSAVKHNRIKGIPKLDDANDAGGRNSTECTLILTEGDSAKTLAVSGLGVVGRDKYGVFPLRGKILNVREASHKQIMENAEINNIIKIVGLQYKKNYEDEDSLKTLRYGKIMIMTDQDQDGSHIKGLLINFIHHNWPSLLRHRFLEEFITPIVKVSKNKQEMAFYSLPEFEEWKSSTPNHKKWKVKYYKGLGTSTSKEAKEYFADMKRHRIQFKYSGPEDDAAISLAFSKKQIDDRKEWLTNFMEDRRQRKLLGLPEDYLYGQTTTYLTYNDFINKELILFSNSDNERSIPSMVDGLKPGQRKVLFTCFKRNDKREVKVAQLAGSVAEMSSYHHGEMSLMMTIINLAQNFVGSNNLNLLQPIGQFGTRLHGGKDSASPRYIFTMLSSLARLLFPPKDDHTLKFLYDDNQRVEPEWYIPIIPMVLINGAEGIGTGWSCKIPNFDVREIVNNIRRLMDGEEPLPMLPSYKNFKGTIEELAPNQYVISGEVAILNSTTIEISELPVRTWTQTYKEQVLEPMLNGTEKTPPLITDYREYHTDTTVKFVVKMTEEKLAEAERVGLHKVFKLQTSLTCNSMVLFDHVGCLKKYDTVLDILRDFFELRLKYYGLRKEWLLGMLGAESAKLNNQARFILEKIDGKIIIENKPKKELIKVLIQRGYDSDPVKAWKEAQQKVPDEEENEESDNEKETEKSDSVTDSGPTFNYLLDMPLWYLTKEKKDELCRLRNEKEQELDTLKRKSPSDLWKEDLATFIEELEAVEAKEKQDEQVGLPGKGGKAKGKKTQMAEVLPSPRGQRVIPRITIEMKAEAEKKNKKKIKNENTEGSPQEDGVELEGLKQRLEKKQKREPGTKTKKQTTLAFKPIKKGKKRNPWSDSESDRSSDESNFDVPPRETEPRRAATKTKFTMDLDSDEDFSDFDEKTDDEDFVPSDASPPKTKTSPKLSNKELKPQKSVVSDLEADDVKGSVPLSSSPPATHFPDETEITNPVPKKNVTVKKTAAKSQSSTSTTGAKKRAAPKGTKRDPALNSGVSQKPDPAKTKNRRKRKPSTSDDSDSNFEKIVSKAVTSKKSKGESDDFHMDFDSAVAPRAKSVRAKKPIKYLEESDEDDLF
compound,measurement,setting,value
"CC[C@@]1(C)CCC[C@]2(C)[C@H]3C[C@@H](OC(=O)C[C@@H](C)O)[C@]4(C)[C@@H](C=O)C(C(C)=O)=CC[C@H]4[C@]3(C)CC[C@@H]12 (relative stereo) [Compound 1, 12β-(3′β-hydroxybutanoyloxy)-20,24-dimethyl-24-oxo-scalara-16-en-25-al]",Expression of γH2AX (DNA damage biomarker),γH2AX,significantly enhanced the expression of γH2AX in a dose-dependent manner
same,IC50,K562,2.08 nM
same,Expression of ER stress-related proteins,[1],"promoted the levels of Bip, Chop, Grp 94 and the activation and cleavage of ATF 6 but suppressed the levels of PERK and IRE 1"
same,Mitochondrial membrane potential (JC-1),Molt 4 cells [2],disruption in mitochondrial membrane potential
same,IC50,human topoisomerase II,3950 nM
same,Apoptotic population (annexin-V/PI),Molt 4 cells [3],increase in the apoptotic population
same,"Cytotoxic effect IC50, Cal-27",Cal-27,0.56 µg/mL
same,"Cytotoxic effect IC50, Molt 4",Molt 4,0.01 µg/mL
same,Cleavage of apoptosis-related proteins,[4],"PARP, caspases-8 and -9 cleavages were significantly increased in a time-dependent manner"
